Each structure is given as a SMILES string.

In the first experiment the target is human recombinant ATX (Homo sapiens, UniProt Q13822). Description: Autotaxin (ATX) activity Quanta Red assay. Format: biochemical. The conditions noted are these: human recombinant ATX 0.8 μg/mL, 2 hours at room temperature, IC50 determined in duplicate; read-out: Activity (ATX activity, Quanta Red assay; IC50). The procedure: The reaction was stopped after 2 hours with a 20 μL addition of Quanta Red Stop solution (1:20 dilution in distilled water). The above-described mixture with DMSO alone was used as a positive control whereas that with DMSO alone without ATX was taken as a negative control.
Fluorescence was determined in a BMG Labtech Pherastar plus plate reader ([…]). Data were analysed using Excel fit software. IC50 values were determined in duplicate.
For the compound `C[C@H](NC(=O)C[S+]([O-])c1nc2cccnc2n1Cc1ccc(OC(F)(F)F)cc1)c1ccc(F)cc1` (single isomer, unassigned) [Example 149], the IC50 was 0.178 µM.

The same experiment, now with this note: read-out: Activity (ATX activity, Quanta Red assay; IC50).
For the compound `Cc1csc(NC(=O)CCc2nc3cccnc3n2Cc2ccc(OC(F)(F)F)cc2)n1` [Example 77, N-(4-Methyl-thiazol-2-yl)-3-[3-(4-trifluoromethoxy-benzyl)-3H-imidazo[4,5-b]pyridin-2-yl]-propionamide], the IC50 came to 0.714 µM. Still for that read-out and setting: the value for `C[C@@H]1CN(c2ccc([C@H](C)NC(=O)CCc3nc4cccnc4n3Cc3ccc(OC(F)(F)F)cc3)cc2)CCN1` [Example 174, N-{(S)-1-[4-((R)-3-Methyl-piperazin-1-yl)-phenyl]-ethyl}-3-[3-(4-trifluoromethoxy-benzyl)-3H-imidazo[4,5-b]pyridin-2-yl]-propionamide] was 0.002 µM; that for `C[C@H](NC(=O)CCc1nc2cccnc2n1Cc1ccc(Br)cc1)c1ccc(F)cc1` [Example 16, 3-[3-(4-Bromo-benzyl)-3H-imidazo[4,5-b]pyridin-2-yl]-N-[(S)-1-(4-fluoro-phenyl)-ethyl]-propionamide] was 0.003 µM; that for `O=C(CSc1nc2cccnc2n1Cc1ccc(F)cc1)N[C@@H](CO)c1ccccc1` [Example 143, 2-[3-(4-Fluoro-benzyl)-3H-imidazo[4,5-b]pyridin-2-ylsulfanyl]-N-((R)-2-hydroxy-1-phenyl-ethyl)-acetamide] was 0.001 µM. The same measure, in the same setting: the value for `O=C(CCc1nc2cccnc2n1Cc1cccc(OC(F)(F)F)c1)NCc1cccc(OC(F)(F)F)c1` [Example 6, N-(3-Trifluoromethoxy-benzyl)-3-[3-(3-trifluoromethoxy-benzyl)-3H-imidazo[4,5-b]pyridin-2-yl]-propionamide] was 0.476 µM; that for `C[C@H](NC(=O)CCc1nc2cccnc2n1Cc1ccc(OC(F)(F)F)cc1)c1ccc(N2CCN(C)CC2)cc1` [Example 167, N—{(S)-1-[4-(4-methyl-piperazin-1-yl)-phenyl]-ethyl}-3-[3-(4-trifluoromethoxy-benzyl)-3H-imidazo[4,5-b]pyridin-2-yl]-propionamide] was 0.001 µM; that for `O=C(CCc1nc2cccnc2n1Cc1ccc(OC(F)(F)F)cc1)NCC1CCOCC1` [Example 62, N-(Tetrahydro-pyran-4-ylmethyl)-3-[3-(4-trifluoromethoxy-benzyl)-3H-imidazo[4,5-b]pyridin-2-yl]-propionamide] was 0.125 µM.

Take `O=C(CCc1nc2cccnc2n1Cc1ccc(F)c(F)c1)N[C@H](Cc1ccccc1)C(=O)O` [Example 198, (R)-2-{3-[3-(3,4-Difluoro-benzyl)-3H-imidazo[4,5-b]pyridin-2-yl]-propionylamino}-3-phenyl-propionic acid]: the IC50 was determined as 0.037 µM. Still for that read-out and setting: the value for `O=C(CCc1nc2cccnc2n1Cc1ccc(F)cc1)N[C@@H](CO)c1ccccc1` [Example 28, 3-[3-(4-Fluoro-benzyl)-3H-imidazo[4,5-b]pyridin-2-yl]-N-((R)-2-hydroxy-1-phenyl-ethyl)-propionamide] was 0.005 µM; that for `C[C@H](NC(=O)CCc1nc2cccnc2n1Cc1ccc(OC(F)(F)F)cc1)c1ccc(N2CC[C@@H](N(C)C)C2)cc1` [Example 168, N-{(S)-1-[4-((R)-3-Dimethylamino-pyrrolidin-1-yl)-phenyl]-ethyl}-3-[3-(4-trifluoromethoxy-benzyl)-3H-imidazo[4,5-b]pyridin-2-yl]-propionamide] was 0.001 µM.

`COc1ccc(Cn2c(CCC(=O)NCCc3ccc(C)cc3)nc3cccnc32)cc1` [Example 108, 3-[3-(4-Methoxy-benzyl)-3H-imidazo[4,5-b]pyridin-2-yl]-N-(2-p-tolyl-ethyl)-propionamide]: the IC50 turned out to be 0.18 µM. The same measure, in the same setting: the value for `COc1ccc(Cn2c(CCC(=O)NCc3cccc(C)c3)nc3cccnc32)cc1` [Example 115, 3-[3-(4-Methoxy-benzyl)-3H-imidazo[4,5-b]pyridin-2-yl]-N-(3-methyl-benzyl)-propionamide] was 0.65 µM; that for `C[C@H](NC(=O)CCc1nc2cccnc2n1Cc1ccc(F)c(F)c1)c1ccc(N2CC[C@@H](O)C2)cc1` [Example 190, 3-[3-(3,4-Difluoro-benzyl)-3H-imidazo[4,5-b]pyridin-2-yl]-N-{(S)-1-[4-((R)-3-hydroxy-pyrrolidin-1-yl)-phenyl]-ethyl}-propionamide] was 0.02 µM; that for `O=C(CCc1nc2cccnc2n1Cc1ccc(OC(F)(F)F)cc1)N[C@H](CO)Cc1ccccc1` [Example 204, N-((S)-1-Hydroxymethyl-2-phenyl-ethyl)-3-[3-(4-trifluoromethoxy-benzyl)-3H-imidazo[4,5-b]pyridin-2-yl]-propionamide] was 0.089 µM. For `O=C(CCc1nc2cccnc2n1Cc1ccc(F)cc1)NC(CO)c1ccc(OC(F)(F)F)cc1` (centres unmarked) [Example 33, 3-[3-(4-Fluoro-benzyl)-3H-imidazo[4,5-b]pyridin-2-yl]-N-[2-hydroxy-1-(4-trifluoromethoxy-phenyl)-ethyl]-propionamide], the IC50 amounted to 0.006 µM. On the same count and under the same terms, the value for `O=C(CCc1nc2cccnc2n1Cc1ccc(C(F)(F)F)cc1)NC(CO)c1ccc(OC(F)(F)F)cc1` (centres unmarked) [Example 32, N-[2-Hydroxy-1-(4-trifluoromethoxy-phenyl)-ethyl]-3-[3-(4-trifluoromethyl-benzyl)-3H-imidazo[4,5-b]pyridin-2-yl]-propionamide] was 0.006 µM; that for `O=C(CCc1nc2ccncc2n1Cc1ccc(OC(F)(F)F)cc1)NC(CO)c1ccc(OC(F)(F)F)cc1` (centres unmarked) [Example 126, N-[2-Hydroxy-1-(4-trifluoromethoxy-phenyl)-ethyl]-3-[3-(4-trifluoromethoxy-benzyl)-3H-imidazo[4,5-c]pyridin-2-yl]-propionamide] was 0.011 µM. Take `C[C@H](NC(=O)CCc1nc2cccnc2n1Cc1ccc(OC(F)(F)F)cc1)[C@H](O)c1ccccc1` [Example 41, N-((1S,2R)-2-Hydroxy-1-methyl-2-phenyl-ethyl)-3-[3-(4-trifluoromethoxy-benzyl)-3H-imidazo[4,5-b]pyridin-2-yl]-propionamide]: the IC50 came to 0.01 µM.

With `CS(=O)(=O)N1CCC(CNC(=O)CCc2nc3cccnc3n2Cc2ccc(OC(F)(F)F)cc2)CC1` [Example 214, N-(1-methanesulfonyl-piperidin-4-ylmethyl)-3-[3-(4-trifluoromethoxy-benzyl)-3H-imidazo[4,5-b]pyridin-2-yl]-propionamide], the IC50 was determined as 0.03 µM. Same read-out and setting: the value for `CC(NC(=O)CCc1nc2cccnc2n1Cc1ccc(OC(F)(F)F)cc1)c1ccncc1` (centres unmarked) [Example 34, N-(1-Pyridin-4-yl-ethyl)-3-[3-(4-trifluoromethoxy-benzyl)-3H-imidazo[4,5-b]pyridin-2-yl]-propionamide] was 0.006 µM.

`Cc1ccc2nc(CCC(=O)N[C@@H](C)c3ccc(Cl)cc3)n(Cc3ccc(F)cc3)c2n1` [Example 79, N-[(S)-1-(4-Chloro-phenyl)-ethyl]-3-[3-(4-fluoro-benzyl)-5-methyl-3H-imidazo[4,5-b]pyridin-2-yl]-propionamide]: the IC50 came out at 0.094 µM. Same read-out and setting: the value for `C[C@H](NC(=O)CCc1nc2cccnc2n1Cc1ccc(F)c(F)c1)c1ccccn1` [Example 72, 3-[3-(3,4-Difluoro-benzyl)-3H-imidazo[4,5-b]pyridin-2-yl]-N-((S)-1-pyridin-2-yl-ethyl)-propionamide] was 0.247 µM.
